In the NIST ThermoML archive (doi:10.1021/je050416y):

Assay: xn = mol fraction of the nth substance listed
Conditions: 101 kPa, Liquid; for mass density: Vibrating tube method

CCC(C)(C)O [2-methylbutan-2-ol] + CCO
Conditions	kinematic viscosity [m2/s]	mass density [kg/m3]
293.15 K, x1 = 0.0268	–	790.6
293.15 K, x1 = 0.0549	–	791.5
293.15 K, x1 = 0.0845	–	792.2
293.15 K, x1 = 0.0915	1.64e-06	–
293.15 K, x1 = 0.1156	–	793
293.15 K, x1 = 0.1484	–	793.9
293.15 K, x1 = 0.1753	1.76e-06	–
293.15 K, x1 = 0.183	–	794.8
293.15 K, x1 = 0.2524	1.89e-06	–
293.15 K, x1 = 0.2584	–	797
293.15 K, x1 = 0.3235	2.04e-06	–
293.15 K, x1 = 0.3433	–	799.5
293.15 K, x1 = 0.3894	2.19e-06	–
293.15 K, x1 = 0.4395	–	802.4
293.15 K, x1 = 0.4505	2.35e-06	–
293.15 K, x1 = 0.5495	–	805.3
293.15 K, x1 = 0.5605	2.69e-06	–
293.15 K, x1 = 0.6567	3.07e-06	–
293.15 K, x1 = 0.6765	–	808.3
293.15 K, x1 = 0.7416	3.46e-06	–
293.15 K, x1 = 0.817	3.86e-06	–
293.15 K, x1 = 0.8247	–	811.2
293.15 K, x1 = 0.8844	4.26e-06	–
293.15 K, x1 = 0.9451	4.67e-06	–
293.15 K, x1 = 1	5.11e-06	813.9
298.15 K, x1 = 0.0268	–	786.4
298.15 K, x1 = 0.0549	–	787.3
298.15 K, x1 = 0.0845	–	788.2
298.15 K, x1 = 0.0915	1.5e-06	–
298.15 K, x1 = 0.1156	–	789.1
298.15 K, x1 = 0.1484	–	790
298.15 K, x1 = 0.1753	1.62e-06	–
298.15 K, x1 = 0.183	–	791
298.15 K, x1 = 0.2524	1.74e-06	–
298.15 K, x1 = 0.2584	–	793.3
298.15 K, x1 = 0.3235	1.86e-06	–
298.15 K, x1 = 0.3433	–	795.9
298.15 K, x1 = 0.3894	1.99e-06	–
298.15 K, x1 = 0.4395	–	798.8
298.15 K, x1 = 0.4505	2.13e-06	–
298.15 K, x1 = 0.5495	–	801.8
298.15 K, x1 = 0.5605	2.43e-06	–
298.15 K, x1 = 0.6567	2.76e-06	–
298.15 K, x1 = 0.6765	–	804.8
298.15 K, x1 = 0.7416	3.1e-06	–
298.15 K, x1 = 0.817	3.44e-06	–
298.15 K, x1 = 0.8247	–	807.7
298.15 K, x1 = 0.8844	3.78e-06	–
298.15 K, x1 = 0.9451	4.12e-06	–
298.15 K, x1 = 1	4.47e-06	810.5
303.15 K, x1 = 0.0268	–	782.1
303.15 K, x1 = 0.0549	–	783.2
303.15 K, x1 = 0.0845	–	784.2
303.15 K, x1 = 0.0915	1.34e-06	–
303.15 K, x1 = 0.1156	–	785.2
303.15 K, x1 = 0.1484	–	786.2
303.15 K, x1 = 0.1753	1.44e-06	–
303.15 K, x1 = 0.183	–	787.3
303.15 K, x1 = 0.2524	1.55e-06	–
303.15 K, x1 = 0.2584	–	789.7
303.15 K, x1 = 0.3235	1.66e-06	–
303.15 K, x1 = 0.3433	–	792.3
303.15 K, x1 = 0.3894	1.78e-06	–
303.15 K, x1 = 0.4395	–	795.2
303.15 K, x1 = 0.4505	1.91e-06	–
303.15 K, x1 = 0.5495	–	798.2
303.15 K, x1 = 0.5605	2.17e-06	–
303.15 K, x1 = 0.6567	2.45e-06	–
303.15 K, x1 = 0.6765	–	801.3
303.15 K, x1 = 0.7416	2.74e-06	–
303.15 K, x1 = 0.817	3.04e-06	–
303.15 K, x1 = 0.8247	–	804.2
303.15 K, x1 = 0.8844	3.33e-06	–
303.15 K, x1 = 0.9451	3.62e-06	–
303.15 K, x1 = 1	3.91e-06	807
308.15 K, x1 = 0.0268	–	777.8
308.15 K, x1 = 0.0549	–	778.9
308.15 K, x1 = 0.0845	–	780
308.15 K, x1 = 0.0915	1.23e-06	–
308.15 K, x1 = 0.1156	–	781.1
308.15 K, x1 = 0.1484	–	782.3
308.15 K, x1 = 0.1753	1.33e-06	–
308.15 K, x1 = 0.183	–	783.4
308.15 K, x1 = 0.2524	1.42e-06	–
308.15 K, x1 = 0.2584	–	785.9
308.15 K, x1 = 0.3235	1.52e-06	–
308.15 K, x1 = 0.3433	–	788.6
308.15 K, x1 = 0.3894	1.62e-06	–
308.15 K, x1 = 0.4395	–	791.5
308.15 K, x1 = 0.4505	1.72e-06	–
308.15 K, x1 = 0.5495	–	794.6
308.15 K, x1 = 0.5605	1.95e-06	–
308.15 K, x1 = 0.6567	2.19e-06	–
308.15 K, x1 = 0.6765	–	797.6
308.15 K, x1 = 0.7416	2.43e-06	–
308.15 K, x1 = 0.817	2.68e-06	–
308.15 K, x1 = 0.8247	–	800.6
308.15 K, x1 = 0.8844	2.93e-06	–
308.15 K, x1 = 0.9451	3.16e-06	–
308.15 K, x1 = 1	3.39e-06	803.5
313.15 K, x1 = 0.0268	–	773.5
313.15 K, x1 = 0.0549	–	774.8
313.15 K, x1 = 0.0845	–	776
313.15 K, x1 = 0.0915	1.12e-06	–
313.15 K, x1 = 0.1156	–	777.2
313.15 K, x1 = 0.1484	–	778.4
313.15 K, x1 = 0.1753	1.2e-06	–
313.15 K, x1 = 0.183	–	779.6
313.15 K, x1 = 0.2524	1.29e-06	–
313.15 K, x1 = 0.2584	–	782.2
313.15 K, x1 = 0.3235	1.37e-06	–
313.15 K, x1 = 0.3433	–	784.9
313.15 K, x1 = 0.3894	1.46e-06	–
313.15 K, x1 = 0.4395	–	787.9
313.15 K, x1 = 0.4505	1.55e-06	–
313.15 K, x1 = 0.5495	–	790.9
313.15 K, x1 = 0.5605	1.74e-06	–
313.15 K, x1 = 0.6567	1.94e-06	–
313.15 K, x1 = 0.6765	–	794
313.15 K, x1 = 0.7416	2.14e-06	–
313.15 K, x1 = 0.817	2.34e-06	–
313.15 K, x1 = 0.8247	–	797.1
313.15 K, x1 = 0.8844	2.54e-06	–
313.15 K, x1 = 0.9451	2.73e-06	–
313.15 K, x1 = 1	2.91e-06	800
318.15 K, x1 = 0.0268	–	769.3
318.15 K, x1 = 0.0549	–	770.6
318.15 K, x1 = 0.0845	–	771.9
318.15 K, x1 = 0.0915	1.02e-06	–
318.15 K, x1 = 0.1156	–	773.2
318.15 K, x1 = 0.1484	–	774.4
318.15 K, x1 = 0.1753	1.1e-06	–
318.15 K, x1 = 0.183	–	775.7
318.15 K, x1 = 0.2524	1.18e-06	–
318.15 K, x1 = 0.2584	–	778.4
318.15 K, x1 = 0.3235	1.25e-06	–
318.15 K, x1 = 0.3433	–	781.2
318.15 K, x1 = 0.3894	1.33e-06	–
318.15 K, x1 = 0.4395	–	784.2
318.15 K, x1 = 0.4505	1.41e-06	–
318.15 K, x1 = 0.5495	–	787.3
318.15 K, x1 = 0.5605	1.57e-06	–
318.15 K, x1 = 0.6567	1.73e-06	–
318.15 K, x1 = 0.6765	–	790.5
318.15 K, x1 = 0.7416	1.9e-06	–
318.15 K, x1 = 0.817	2.07e-06	–
318.15 K, x1 = 0.8247	–	793.6
318.15 K, x1 = 0.8844	2.23e-06	–
318.15 K, x1 = 0.9451	2.38e-06	–
318.15 K, x1 = 1	2.52e-06	796.6
323.15 K, x1 = 0.0268	–	764.9
323.15 K, x1 = 0.0549	–	766.3
323.15 K, x1 = 0.0845	–	767.7
323.15 K, x1 = 0.0915	9.01e-07	–
323.15 K, x1 = 0.1156	–	769.1
323.15 K, x1 = 0.1484	–	770.4
323.15 K, x1 = 0.1753	9.68e-07	–
323.15 K, x1 = 0.183	–	771.8
323.15 K, x1 = 0.2524	1.03e-06	–
323.15 K, x1 = 0.2584	–	774.6
323.15 K, x1 = 0.3235	1.09e-06	–
323.15 K, x1 = 0.3433	–	777.5
323.15 K, x1 = 0.3894	1.16e-06	–
323.15 K, x1 = 0.4395	–	780.5
323.15 K, x1 = 0.4505	1.22e-06	–
323.15 K, x1 = 0.5495	–	783.7
323.15 K, x1 = 0.5605	1.35e-06	–
323.15 K, x1 = 0.6567	1.49e-06	–
323.15 K, x1 = 0.6765	–	787
323.15 K, x1 = 0.7416	1.62e-06	–
323.15 K, x1 = 0.817	1.75e-06	–
323.15 K, x1 = 0.8247	–	790.2
323.15 K, x1 = 0.8844	1.87e-06	–
323.15 K, x1 = 0.9451	1.99e-06	–
323.15 K, x1 = 1	2.09e-06	793.3
